Assay: not given

Compound	logP
O=c1[nH]c2ccccc2n1CCCN1CCN(C(c2ccccc2)c2ccccc2)CC1	2.73

Assay: method code SF, from DOI: 10.1063/1.555833

Compound	logP
CCc1nn(-c2ccccc2)c(N)c1-c1ccc(OC)c(OC)c1	2.82
Cc1cc2c(c3c1[nH]c1ccccc13)C(=O)CC(C)(C)C2	3.58
CCc1n[nH]c(N)c1-c1ccccc1	1.96
COc1ccc(-c2cn[nH]c2N)cc1OC	0.85
O=C(NCCCCCCNC(=O)c1ccccc1O)c1ccccc1O	2.85
CCCCN1C(=O)c2ccc([N+](=O)[O-])cc2C1=O	2.26
CCc1n[nH]c(N)c1-c1ccc(OC)c(OC)c1	1.37
COc1ccc(Cc2nc3ccccc3c(=O)n2N)cc1OC	1.94
COc1ccc(-c2cnoc2N)cc1OC	0.48
Nc1[nH]nc(Cc2ccccc2)c1-c1ccccc1	2.39
Cc1nn(-c2ccccc2)c(N)c1-c1ccccc1	2.92
Nc1c(-c2ccccc2)cnn1-c1ccccc1	2.52
COc1ccc(-c2c(C)n[nH]c2N)cc1OC	1.33
O=C1Cc2ccccc2C(c2ccc([N+](=O)[O-])cc2)N1 (configuration not stated)	2.48
COc1ccc(-c2c(C)noc2N)cc1OC	1.53
CC(=O)n1cc(C2=C(O)C(C)(C)CCC2=O)c2ccccc21	2.16
